# According to EP4667465A1, “SALT OF BENZO-NITROGEN HETEROAROMATIC RING DERIVATIVE, CRYSTALLINE FORM, AND PHARMACEUTICAL USE THEREOF” (Haisco Pharmaceutical Group Co., Ltd., priority 2023, dated 2024):
# Experiments:
# [1] = Stability of the crystalline form (purity under accelerated, intermediate and long-term storage); format: physicochemical
# [2] = Hygroscopicity (sorption isotherm curve); format: physicochemical; conditions: at 80% RH
# Excerpt: According to the description of the hygroscopicity characteristics and the definition of hygroscopic weight gain in the Chinese Pharmacopoeia 2020 Edition, Volume IV, General Chapter 9103: Guidelines for Hygroscopicity Trials for Pharmaceuticals, • deliquescence: absorbing enough moisture to form a liquid; • extremely hygroscopic: a hygroscopic weight gain of not less than 15%; • hygroscopic: a hygroscopic weight gain of less than 15% but no less than 2%; • slightly hygroscopic: a hygroscopic weight gain of less than 2% but no less than 0.2%; and • non-hygroscopic or practically non-hygroscopic: a hygroscopic weight gain of less than 0.2%.
# [3] = Pharmacokinetic test in rats; format: in vivo, SD rats
# Description: Experimental objective: in this experiment, a single dose of the test substance was administered to SD rats intravenously and intragastrically, and the concentration of the test substance in plasma of the rats was measured to evaluate the pharmacokinetic characteristics of the test substance in the rats. Experimental animals: male SD rats, 200-250 g, 6-8 weeks old, 6 rats/compound, purchased from Chengdu Dossy Experimental Animals Co., Ltd. Experimental method: on the day of the experiment, 6 SD rats were randomly grouped according to their body weights. […] Sampling: before and after the administration, 0.15 mL of blood was taken from the orbits under isoflurane anesthesia and placed in an EDTAK2 centrifuge tube. Centrifugation was carried out at 5000 rpm at 4°C for 10 min, and the plasma was collected. The plasma collection time points for IV&PO groups were 0, 5 min, 15 min, 30 min, 1 h, 2 h, 4 h, 6 h, 8 h, and 24 h. Before analysis and detection, all samples were stored at -60°C. The samples were analyzed quantitatively by LC-MS/MS.
# [4] = Pharmacokinetic test in monkeys; format: in vivo, cynomolgus monkeys; conditions: compared with the trifluoroacetate of LNP023, in words
# Description: Experimental objective: in this experiment, a single dose of test substance was administered to cynomolgus monkeys intravenously and intragastrically, and the concentration of the test substance in plasma of the monkeys was measured to evaluate the pharmacokinetic characteristics of the test substance in the monkeys.
# Experimental animals: male cynomolgus monkeys, 3-5 kg, 3-6 years old, 6 monkeys/compound, purchased from Suzhou Xishan Biotechnology Co., Ltd.
# Experimental method: on the day of the experiment, 6 monkeys were randomly grouped according to their body weights. The cynomolgus monkeys were fasted with water available for 14-18 h one day before the administration, and were fed 4 h after the administration.
# Sampling: before and after the administration, 1.0 mL of blood was taken from the limb veins and placed in an EDTAK2 centrifuge tube. Centrifugation was carried out at 5000 rpm at 4°C for 10 min, and the plasma was collected.
# The plasma collection time points for IV&PO groups were 0, 5 min, 15 min, 30 min, 1 h, 2 h, 4 h, 6 h, 8 h, 10 h, 12 h, and 24 h.
# Before analysis and detection, all samples were stored at -60°C. The samples were analyzed quantitatively by LC-MS/MS.
# Caco-2 cells = conditions: Caco2, compared with the trifluoroacetate of LNP023; in words
# Description: (§1) In the experiment, a monolayer of Caco-2 cells was used, and incubated in triplicate in a 96-well Transwell plate. A transport buffer solution (HBSS, 10 mM HEPES, pH 7.4 ± 0.05) containing the compound of the present invention (2 µM) or the control compound digoxin (10 µM), nadolol (2 µM) or metoprolol (2 µM) was added to the administration end hole on the apical side or basal side. A DMSO-containing transport buffer solution was added to the corresponding receiving end hole. After incubation for 2 hours at 37°C ± 1°C, the cell plate was removed, and an appropriate amount of samples was taken from both the apical side and basal side and transferred to a new 96-well plate. Subsequently, acetonitrile containing an internal standard was added to precipitate the protein. The samples were analyzed using LC MS/MS, and the concentrations of the compound of the present invention and the control compound were determined. Concentration data were used to calculate apparent permeability coefficients for transport from the apical side to the basal side, and from the basal side to the apical side of the cell monolayer, and thus to calculate the efflux ratio. The integrity of the cell monolayer after 2 hours of incubation was evaluated by leakage of Lucifer Yellow.
# in vitro = conditions: human, Caco-2, pH 7.4
# Description: as §1
# complement factor B = complement factor B (Homo sapiens, UniProt P00751); conditions: in words; disclosed in PCT/CN 2022/113216; cited from earlier work
# Sequence of complement factor B (P00751 26-764): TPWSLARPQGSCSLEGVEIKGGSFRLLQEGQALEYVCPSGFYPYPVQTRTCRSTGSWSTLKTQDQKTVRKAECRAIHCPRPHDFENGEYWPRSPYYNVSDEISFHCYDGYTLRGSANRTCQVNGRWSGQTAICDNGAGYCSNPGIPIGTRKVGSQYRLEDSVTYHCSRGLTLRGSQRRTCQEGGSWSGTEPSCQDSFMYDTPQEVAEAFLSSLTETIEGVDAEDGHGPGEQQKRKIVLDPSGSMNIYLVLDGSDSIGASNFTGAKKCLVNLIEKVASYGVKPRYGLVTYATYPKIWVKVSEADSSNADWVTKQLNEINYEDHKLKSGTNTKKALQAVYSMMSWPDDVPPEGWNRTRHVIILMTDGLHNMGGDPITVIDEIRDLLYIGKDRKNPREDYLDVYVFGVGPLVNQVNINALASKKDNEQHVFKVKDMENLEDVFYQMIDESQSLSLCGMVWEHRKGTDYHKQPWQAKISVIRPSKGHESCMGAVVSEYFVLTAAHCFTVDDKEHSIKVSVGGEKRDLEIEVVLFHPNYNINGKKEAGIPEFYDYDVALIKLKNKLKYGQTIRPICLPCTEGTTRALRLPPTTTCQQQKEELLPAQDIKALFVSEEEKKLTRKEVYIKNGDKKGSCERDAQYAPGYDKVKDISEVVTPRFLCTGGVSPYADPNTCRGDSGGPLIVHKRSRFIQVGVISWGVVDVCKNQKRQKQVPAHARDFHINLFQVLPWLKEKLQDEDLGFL
# C3a level = conditions: in words; disclosed in PCT/CN 2022/113216; cited from earlier work
# [5] = male, rat, po, SD rats, plasma, i.g. (10 mg/kg)
# [6] = in rats, compared with LNP023, in words
compound,measurement,setting,value
"[2H]C([2H])([2H])Oc1cc(C)c2[nH]ccc2c1CN1CC[C@@H](C2CC2)C[C@H]1c1ccc(C(=O)O)cc1 [4-((2S,4R)-4-cyclopropyl-1-((5-(methoxy-d3)-7-methyl-1H-indol-4-yl)methyl)piperidin-2-yl)benzoic acid]",Purity,[1]; 0 day,97.80%
same,Purity,"[1]; Accelerated: 40°C ± 2°C, 75% ± 5% RH, 1 month",97.70%
same,Purity,"[1]; Accelerated: 40°C ± 2°C, 75% ± 5% RH, 2 months",97.70%
same,Purity,"[1]; Accelerated: 40°C ± 2°C, 75% ± 5% RH, 3 months",97.90%
same,Purity,"[1]; Accelerated: 40°C ± 2°C, 75% ± 5% RH, 6 months",97.80%
same,Purity,"[1]; Intermediate: 25°C ± 2°C, 60% ± 5% RH, 3 months",98.00%
same,Purity,"[1]; Intermediate: 25°C ± 2°C, 60% ± 5% RH, 6 months",97.80%
same,Purity,"[1]; Long-term: 2°C - 8°C, 3 months",97.90%
same,Purity,"[1]; Long-term: 2°C - 8°C, 6 months",97.70%
same,stability,"[1]; under accelerated, intermediate and long-term conditions, conclusion in words",good stability
same,hygroscopic weight gain,[2],about 1.15%
CCO[C@H]1CCN(Cc2c(OC)cc(C)c3[nH]ccc23)[C@H](c2ccc(C(=O)O)cc2)C1 [LNP023],bioavailability,"[3]; male, rat, plasma, po, SD rats, i.g. (10 mg/kg)",49%
same,Cmax,[3]; [5],867 ng/mL
same,Tmax,[3]; [5],3.5 h
same,half-life,[3]; [5],3.39 h
same,AUC(0-t),"[3]; male, rat, po, SD rats, plasma, i.g. (10 mg/kg), read-out: AUC0-24h",9870 ng·h/mL
"[2H]C([2H])([2H])Oc1cc(C)c2[nH]ccc2c1CN1CC[C@@H](C2CC2)C[C@H]1c1ccc(C(=O)O)cc1 [Trifluoroacetate of compound 1, 4-((2S,4R)-4-cyclopropyl-1-((5-(methoxy-d3)-7-methyl-1H-indol-4-yl)methyl)piperidin-2-yl)benzoic acid]",maximum plasma concentration,[3]; [6],higher
same,oral bioavailability,[3]; [6],higher
same,bioavailability,[4],higher
same,oral exposure,[4],higher
same,permeability,Caco-2 cells,better
same,"Papp A→B at 2 h, 2 µM",in vitro,1.77 ×10⁻⁶ cm/s
same,"Papp B→A at 2 h, 2 µM",in vitro,19.4 ×10⁻⁶ cm/s
"[2H]C([2H])([2H])Oc1cc(C)c2[nH]ccc2c1CN1CC[C@@H](C2CC2)C[C@H]1c1ccc(C(=O)O)cc1 [compound 1, 4-((2S,4R)-4-cyclopropyl-1-((5-(methoxy-d3)-7-methyl-1H-indol-4-yl)methyl)piperidin-2-yl)benzoic acid]",inhibitory activity against complement factor B,complement factor B,good
same,inhibition rate of C3a level in vivo,C3a level,good
